Experiments:
Format in all cases: in vivo
[1] = tested on: barnyardgrass (Echinochloa crus-galli); assay: Test G Pre-Emergence Protocol; conditions: Echinochloa crus-galli, pre-emergence, 312 h, evaluated after 13 days; for pest or weed control at 15.625 g/ha: 15.625 g ai/ha; for pest or weed control at 15.625 g/ha / pest or weed control at 250 g/ha: read-out: Barnyardgrass damage rating (100=total damage to plant; 0=no damage to plant); for pest or weed control at 62.5 g/ha: 62.5 g ai/ha, 100=total damage to plant, 0=no damage to plant, read-out: Barnyardgrass damage rating; for pest or weed control at 250 g/ha: 250 g ai/ha
Procedure, shortened: (§1)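 Under a 24/16° C day/night regime with 14 h light and 65% humidity, sown pots were sprayed after one day with compound (15.625, 62.5 or 250 g/ha; 50:50 acetone/water, 0.5% Tween 20). Damage was assessed visually 13 days later, 0 to 100.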

[2] = tested on: corn (Zea mays); assay: Test G Pre-Emergence Protocol; conditions: Zea mays, pre-emergence, 312 h, evaluated after 13 days; for plant injury at 15.625 g/ha: 15.625 g ai/ha; for plant injury at 15.625 g/ha / plant injury at 250 g/ha: read-out: Corn damage rating (100=total damage to plant; 0=no damage to plant); for plant injury at 62.5 g/ha: 62.5 g ai/ha, 100=total damage to plant, 0=no damage to plant, read-out: Corn damage rating; for plant injury at 250 g/ha: 250 g ai/ha
Procedure, shortened: as §1

[3] = tested on: giant foxtail (Setaria faberi); assay: Test G Pre-Emergence Protocol; conditions: Setaria faberi, pre-emergence, 312 h, evaluated after 13 days; for pest or weed control at 15.625 g/ha: 15.625 g ai/ha; for pest or weed control at 15.625 g/ha / pest or weed control at 250 g/ha: read-out: Foxtail, Giant damage rating (100=total damage to plant; 0=no damage to plant); for pest or weed control at 62.5 g/ha: 62.5 g ai/ha, 100=total damage to plant, 0=no damage to plant, read-out: Foxtail, Giant damage rating; for pest or weed control at 250 g/ha: 250 g ai/ha
Procedure, shortened: as §1

[4] = tested on: ivy-leaved morning glory (Ipomoea hederacea); assay: Test G Pre-Emergence Protocol; conditions: Ipomoea, pre-emergence, 312 h, evaluated after 13 days; for pest or weed control at 15.625 g/ha: 15.625 g ai/ha; for pest or weed control at 15.625 g/ha / pest or weed control at 250 g/ha: read-out: Morningglory, Ivy-leaved damage rating (100=total damage to plant; 0=no damage to plant); for pest or weed control at 62.5 g/ha: 62.5 g ai/ha, 100=total damage to plant, 0=no damage to plant, read-out: Morningglory, Ivy-leaved damage rating; for pest or weed control at 250 g/ha: 250 g ai/ha
Procedure, shortened: as §1

[5] = tested on: redroot pigweed (Amaranthus retroflexus); assay: Test G Pre-Emergence Protocol; conditions: Amaranthus retroflexus, pre-emergence, 312 h, evaluated after 13 days; for pest or weed control at 15.625 g/ha: 15.625 g ai/ha; for pest or weed control at 15.625 g/ha / pest or weed control at 250 g/ha: read-out: Pigweed, Redroot damage rating (100=total damage to plant; 0=no damage to plant); for pest or weed control at 62.5 g/ha: 62.5 g ai/ha, 100=total damage to plant, 0=no damage to plant, read-out: Pigweed, Redroot damage rating; for pest or weed control at 250 g/ha: 250 g ai/ha
Procedure, shortened: as §1

[6] = tested on: velvetleaf (Abutilon theophrasti); assay: Test G Pre-Emergence Protocol; conditions: Abutilon theophrasti, pre-emergence, 312 h, evaluated after 13 days; for pest or weed control at 15.625 g/ha: 15.625 g ai/ha; for pest or weed control at 15.625 g/ha / pest or weed control at 250 g/ha: read-out: Velvetleaf damage rating (100=total damage to plant; 0=no damage to plant); for pest or weed control at 62.5 g/ha: 62.5 g ai/ha, 100=total damage to plant, 0=no damage to plant, read-out: Velvetleaf damage rating; for pest or weed control at 250 g/ha: 250 g ai/ha
Procedure, shortened: as §1

[7] = tested on: barnyardgrass (Echinochloa crus-galli); assay: Test G Post-Emergence Protocol; conditions: Echinochloa crus-galli, post-emergence, 312 h, read-out: Barnyardgrass damage rating; for pest or weed control at 15.625 g/ha: 15.625 g ai/ha, evaluated after 13 days (100=total damage to plant; 0=no damage to plant); for pest or weed control at 62.5 g/ha: 62.5 g ai/ha; for pest or weed control at 62.5 g/ha / pest or weed control at 250 g/ha: evaluated after 13 days, 100=total damage to plant, 0=no damage to plant; for pest or weed control at 250 g/ha: 250 g ai/ha
Procedure, shortened: (§2)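 Pot-grown seedlings, 8 days old, raised in a glasshouse at 24/16 °C day/night with 14 h light and 65% humidity, were sprayed post-emergence with test compound in acetone/water (50:50) plus 0.5% Tween 20 at 15.625, 62.5 or 250 g/ha. Damage was scored visually 13 days later on a 0–100 scale (100 = total damage).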

[8] = tested on: corn (Zea mays); assay: Test G Post-Emergence Protocol; conditions: Zea mays, post-emergence, 312 h, read-out: Corn damage rating; for plant injury at 15.625 g/ha: 15.625 g ai/ha, evaluated after 13 days (100=total damage to plant; 0=no damage to plant); for plant injury at 62.5 g/ha: 62.5 g ai/ha; for plant injury at 62.5 g/ha / plant injury at 250 g/ha: evaluated after 13 days, 100=total damage to plant, 0=no damage to plant; for plant injury at 250 g/ha: 250 g ai/ha
Procedure, shortened: as §2

[9] = tested on: giant foxtail (Setaria faberi); assay: Test G Post-Emergence Protocol; conditions: Setaria faberi, post-emergence, 312 h, read-out: Foxtail, Giant damage rating; for pest or weed control at 15.625 g/ha: 15.625 g ai/ha, evaluated after 13 days (100=total damage to plant; 0=no damage to plant); for pest or weed control at 62.5 g/ha: 62.5 g ai/ha; for pest or weed control at 62.5 g/ha / pest or weed control at 250 g/ha: evaluated after 13 days, 100=total damage to plant, 0=no damage to plant; for pest or weed control at 250 g/ha: 250 g ai/ha
Procedure, shortened: as §2

[10] = tested on: ivy-leaved morning glory (Ipomoea hederacea); assay: Test G Post-Emergence Protocol; conditions: Ipomoea, post-emergence, 312 h, read-out: Morningglory, Ivy-leaved damage rating; for pest or weed control at 15.625 g/ha: 15.625 g ai/ha, evaluated after 13 days (100=total damage to plant; 0=no damage to plant); for pest or weed control at 62.5 g/ha: 62.5 g ai/ha; for pest or weed control at 62.5 g/ha / pest or weed control at 250 g/ha: evaluated after 13 days, 100=total damage to plant, 0=no damage to plant; for pest or weed control at 250 g/ha: 250 g ai/ha
Procedure, shortened: as §2

[11] = tested on: redroot pigweed (Amaranthus retroflexus); assay: Test G Post-Emergence Protocol; conditions: Amaranthus retroflexus, post-emergence, 312 h, read-out: Pigweed, Redroot damage rating; for pest or weed control at 15.625 g/ha: 15.625 g ai/ha, evaluated after 13 days (100=total damage to plant; 0=no damage to plant); for pest or weed control at 62.5 g/ha: 62.5 g ai/ha; for pest or weed control at 62.5 g/ha / pest or weed control at 250 g/ha: evaluated after 13 days, 100=total damage to plant, 0=no damage to plant; for pest or weed control at 250 g/ha: 250 g ai/ha
Procedure, shortened: as §2

[12] = tested on: velvetleaf (Abutilon theophrasti); assay: Test G Post-Emergence Protocol; conditions: Abutilon theophrasti, post-emergence, 312 h, read-out: Velvetleaf damage rating; for pest or weed control at 15.625 g/ha: 15.625 g ai/ha, evaluated after 13 days (100=total damage to plant; 0=no damage to plant); for pest or weed control at 62.5 g/ha: 62.5 g ai/ha; for pest or weed control at 62.5 g/ha / pest or weed control at 250 g/ha: evaluated after 13 days, 100=total damage to plant, 0=no damage to plant; for pest or weed control at 250 g/ha: 250 g ai/ha
Procedure, shortened: as §2

| Compound | pest or weed control at 15.625 g/ha [1] | pest or weed control at 62.5 g/ha [1] | pest or weed control at 250 g/ha [1] | plant injury at 15.625 g/ha [2] | plant injury at 62.5 g/ha [2] | plant injury at 250 g/ha [2] | pest or weed control at 15.625 g/ha [3] | pest or weed control at 62.5 g/ha [3] | pest or weed control at 250 g/ha [3] | pest or weed control at 15.625 g/ha [4] | pest or weed control at 62.5 g/ha [4] | pest or weed control at 250 g/ha [4] | pest or weed control at 15.625 g/ha [5] | pest or weed control at 62.5 g/ha [5] | pest or weed control at 250 g/ha [5] | pest or weed control at 15.625 g/ha [6] | pest or weed control at 62.5 g/ha [6] | pest or weed control at 250 g/ha [6] | pest or weed control at 15.625 g/ha [7] | pest or weed control at 62.5 g/ha [7] | also measured |
| --- | --- | --- | --- | --- | --- | --- | --- | --- | --- | --- | --- | --- | --- | --- | --- | --- | --- | --- | --- | --- | --- |
| CON1C[C@H](c2ccc(C(F)(F)F)cc2)[C@@H](C(=O)Nc2cccc(F)c2F)C1=O (racemic) [Compound 1836] | 10% | 70% | 80% | 10% | 10% | 80% | 50% | 80% | 90% | 10% | 20% | 30% | 0% | 50% | 50% | 0% | 0% | 30% | 0% | 70% | pest or weed control at 250 g/ha [7]: 80%; plant injury at 15.625 g/ha [8]: 0%; plant injury at 62.5 g/ha [8]: 10%; plant injury at 250 g/ha [8]: 70%; pest or weed control at 15.625 g/ha [9]: 50%; pest or weed control at 62.5 g/ha [9]: 70%; pest or weed control at 250 g/ha [9]: 70%; pest or weed control at 15.625 g/ha [10]: 20%; pest or weed control at 62.5 g/ha [10]: 20%; pest or weed control at 250 g/ha [10]: 40%; pest or weed control at 15.625 g/ha [11]: 20%; pest or weed control at 62.5 g/ha [11]: 60%; pest or weed control at 250 g/ha [11]: 70%; pest or weed control at 15.625 g/ha [12]: 10%; pest or weed control at 62.5 g/ha [12]: 20%; pest or weed control at 250 g/ha [12]: 50% |
| CN1C[C@H](c2ccc(Cl)cc2)[C@@H](C(=O)Nc2cccnc2F)C1=O [Compound 1810] | 60% | 90% | 90% | 20% | 30% | 90% | 80% | 90% | 90% | 0% | 30% | 70% | 0% | 40% | 80% | 0% | 40% | 70% | 0% | 60% | pest or weed control at 250 g/ha [7]: 80%; plant injury at 15.625 g/ha [8]: 0%; plant injury at 62.5 g/ha [8]: 0%; plant injury at 250 g/ha [8]: 50%; pest or weed control at 15.625 g/ha [9]: 20%; pest or weed control at 62.5 g/ha [9]: 80%; pest or weed control at 250 g/ha [9]: 80%; pest or weed control at 15.625 g/ha [10]: 20%; pest or weed control at 62.5 g/ha [10]: 60%; pest or weed control at 250 g/ha [10]: 20%; pest or weed control at 15.625 g/ha [11]: 0%; pest or weed control at 62.5 g/ha [11]: 10%; pest or weed control at 250 g/ha [11]: 60%; pest or weed control at 15.625 g/ha [12]: 20%; pest or weed control at 62.5 g/ha [12]: 30%; pest or weed control at 250 g/ha [12]: 40% |
